From patent publication US20130204033A1, “ANTIPROLIFERATIVE COMPOUNDS, CONJUGATES THEREOF, METHODS THEREFOR, AND USES THEREOF” (Medarex, Inc., priority 2009, published 2013)
pEC50: −log10 of the molar value.

Tests used:
Assay type in all cases: cell-based, human
[1] = tested on: 786-O; experiment: 3H thymidine proliferation assay, 786-O; settings: Homo sapiens, 786-0, read-out: EC50, 786-O, 3H thymidine method, 72 h incubation
Experimental: (§1) This example generally describes the procedures used to assay the antiproliferative activity of compounds of this invention or their conjugates. Human tumor cell lines were obtained from the American Type Culture Collection (ATCC), P.O. Box 1549, Manassas, Va. 20108, USA, and cultured according to instruction from the ATCC. Cells were seeded at 1.0×10^3 or 1.0×10^4 cells/well in 96-well plates for 3 h for ATP assays or ^3H thymidine assays, respectively. 1:3 serial dilutions of free (unconjugated) compounds or their conjugates were added to the wells. Plates were allowed to incubate for 24 to 72 h. The ^3H thymidine plates were pulsed with 1.0 μCi of ^3H-thymidine per well for the last 24 hours of the total incubation period, harvested, and read on a Top Count Scintillation Counter (Packard Instruments, Meriden, Conn.). ATP levels in the ATP plates were measured using the […]-GLO® Luminescent Cell Viability kit following the manufacturer's manual and read on a GLOMAX® 20/20 luminometer (both from Promega, Madison, Wis., USA). The EC50 values—the concentration at which an agent inhibits or reduces cell proliferation by 50% —were determined using PRISM™ software, version 4.0 (GraphPad Software, La Jolla, Calif., USA).
(§2) Using the ^3H thymidine or the ATP luminescence assay, or both, the activities of compounds of this invention were assayed against the following cancer cell lines: HCT-15 (colorectal cancer, multi-drug resistant (MDR)); Hep3B (liver cancer); LNCaP (prostate cancer, androgen receptor positive (AR^+)); MDA-MB-231 (breast cancer, estrogen receptor, progesterone receptor, and Her2 negative (triple negative)); A2058 (melanoma); U-87 MG (glioblastoma); NCI-H460 (NSCLC); A549 (NSCLC); HPAC (pancreatic cancer, primary); PC3 (prostate cancer, AR); BT474 (breast cancer, Her2 highly positive (Her2hi)); SKOV3 (ovarian cancer, Her2hi); 786-O (renal cancer); UO-31 (renal cancer, MDR); NCI-H740 (SCLC); DMS53 (SCLC); SK-BR3 (breast cancer, Her2hi); ZR-75 (breast cancer, estrogen receptor positive); OVCAR3 (ovarian cancer); HL-60 (APL); OVCAR8/Adr (ovarian cancer, MDR); CEM-Cl (ALL); Nomo-1 (AML); RPMI-8226 (MM)); Raji (lymphoma); SW-480 (colorectal cancer, metastatic); SW-620 (colorectal cancer); and H226 (lung cancer). (Not all compounds were assayed against all cell lines.)
(§3) Table 2 provides the data for proliferation assays using the ^3H thymidine method, with an incubation period of 72 h.

[2] = tested on: 786-O; experiment: ATP luminescence proliferation assay, 786-O
Experimental: as §1, §2
(§4) FIGS. 12a and 12b show illustrative plots for ATP luminescence proliferation assays for a second set of compounds of this invention, against HL-60 and 786-O cells, respectively, with an incubation period of 72 h. FIGS. 12c and 12d show the plots for ^3H thymidine proliferation assays for the same set of compounds, again against HL-60 and 786-O cells, respectively, with a 72 h incubation period. In each instance, doxorubicin was used as a comparative compound.
(§5) Table 3 provides the data for the ATP luminescence proliferation assays, with an incubation period of 48, 72, or 96 h, as noted.

[3] = tested on: HL-60; experiment: 3H thymidine proliferation assay, HL-60; settings: Homo sapiens, HL-60, read-out: EC50, HL-60, 3H thymidine method, 72 h incubation
Experimental: as §1, §2, §3

[4] = tested on: HL-60; experiment: ATP luminescence proliferation assay, HL-60
Experimental: as §1, §2, §4, §5

[5] = tested on: U-87 MG; experiment: 3H thymidine proliferation assay, U-87 MG; settings: Homo sapiens, U-87 MG, read-out: EC50, U-87 MG, 3H thymidine method, 72 h incubation
Experimental: as §1, §2, §3

[6] = tested on: UO-31; experiment: 3H thymidine proliferation assay, UO-31; settings: Homo sapiens, UO-31, read-out: EC50, UO-31, 3H thymidine method, 72 h incubation
Experimental: as §1, §2, §3

[7] = tested on: MDA-MB-231; experiment: 3H thymidine proliferation assay, MDA-MB-231; settings: Homo sapiens, MDA-MB-231, read-out: EC50, MDA-MB-231, 3H thymidine method, 72 h incubation
Experimental: as §1, §2, §3

[8] = tested on: ZR-75; experiment: 3H thymidine proliferation assay, ZR-75; settings: Homo sapiens, ZR75, read-out: EC50, ZR-75, 3H thymidine method, 72 h incubation
Experimental: as §1, §2, §3

[9] = tested on: A2058; experiment: 3H thymidine proliferation assay, A2058; settings: Homo sapiens, A2058; 3H thymidine method, 72 h incubation
Experimental: as §1, §2, §3

[10] = tested on: A549; experiment: 3H thymidine proliferation assay, A549; settings: Homo sapiens, A549, read-out: EC50, A549, 3H thymidine method, 72 h incubation
Experimental: as §1, §2, §3

[11] = tested on: Nomo-1; experiment: 3H thymidine proliferation assay, Nomo-1; settings: Homo sapiens, NOMO-1, read-out: EC50, Nomo-1, 3H thymidine method, 72 h incubation
Experimental: as §1, §2, §3

[12] = tested on: HPAC; experiment: 3H thymidine proliferation assay, HPAC; settings: Homo sapiens, HPAC, read-out: EC50, HPAC, 3H thymidine method, 72 h incubation
Experimental: as §1, §2, §3

[13] = tested on: OVCAR3; experiment: 3H thymidine proliferation assay, OVCAR3; settings: Homo sapiens, OVCAR-3, read-out: EC50, OVCAR3, 3H thymidine method, 72 h incubation
Experimental: as §1, §2, §3

[14] = tested on: SK-BR3; experiment: 3H thymidine proliferation assay, SK-BR3; settings: Homo sapiens, SK-BR-3; 3H thymidine method, 72 h incubation
Experimental: as §1, §2, §3

[15] = tested on: DMS53; experiment: 3H thymidine proliferation assay, DMS53; settings: Homo sapiens, DMS-53, read-out: EC50, DMS53, 3H thymidine method, 72 h incubation
Experimental: as §1, §2, §3

[16] = tested on: CEM-C1; experiment: 3H thymidine proliferation assay, CEM-C1; settings: Homo sapiens, CEM/C1, read-out: EC50, CEM-C1, 3H thymidine method, 72 h incubation
Experimental: as §1, §2, §3

[17] = tested on: RPMI-8226; experiment: 3H thymidine proliferation assay, RPMI-8226; settings: Homo sapiens, RPMI-8226, read-out: EC50, RPMI-8226, 3H thymidine method, 72 h incubation
Experimental: as §1, §2, §3

[18] = tested on: BT474; experiment: 3H thymidine proliferation assay, BT474; settings: Homo sapiens, BT-474, read-out: EC50, BT474, 3H thymidine method, 72 h incubation
Experimental: as §1, §2, §3

[19] = tested on: NCI-H460; experiment: 3H thymidine proliferation assay, NCI-H460; settings: Homo sapiens, NCI-H460, read-out: EC50, NCI-H460, 3H thymidine method, 72 h incubation
Experimental: as §1, §2, §3

[20] = tested on: OVCAR8; experiment: 3H thymidine proliferation assay, OVCAR8; settings: Homo sapiens, OVCAR-8, read-out: EC50, OVCAR8, 3H thymidine method, 72 h incubation
Experimental: as §1, §2, §3

[21] = tested on: HCT-15; experiment: 3H thymidine proliferation assay, HCT-15; settings: Homo sapiens, HCT-15, read-out: EC50, HCT-15, 3H thymidine method, 72 h incubation
Experimental: as §1, §2, §3

[22] = tested on: Hep3B; experiment: 3H thymidine proliferation assay, Hep3B; settings: Homo sapiens, Hep3B, read-out: EC50, Hep3B, 3H thymidine method, 72 h incubation
Experimental: as §1, §2, §3

[23] = tested on: H740; experiment: 3H thymidine proliferation assay, H740; settings: Homo sapiens, read-out: EC50, H740, 3H thymidine method, 72 h incubation
Experimental: as §1, §2, §3

[24] = tested on: LNCaP; experiment: 3H thymidine proliferation assay, LNCaP; settings: Homo sapiens, LNCaP, read-out: EC50, LNCaP, 3H thymidine method, 72 h incubation
Experimental: as §1, §2, §3

[25] = tested on: SKOV3; experiment: 3H thymidine proliferation assay, SKOV3; settings: Homo sapiens, SK-OV-3, read-out: EC50, SKOV3, 3H thymidine method, 72 h incubation
Experimental: as §1, §2, §3

[26] = tested on: Raji; experiment: 3H thymidine proliferation assay, Raji; settings: Homo sapiens, Raji, read-out: EC50, Raji, 3H thymidine method, 72 h incubation
Experimental: as §1, §2, §3

[27] = tested on: PC3; experiment: 3H thymidine proliferation assay, PC3; settings: Homo sapiens, PC-3, read-out: EC50, PC3, 3H thymidine method, 72 h incubation
Experimental: as §1, §2, §3

[28] = tested on: OVCAR8/Adr; experiment: ATP luminescence proliferation assay, OVCAR8/Adr; settings: 48 h incubation period, read-out: EC50 against the OVACAR8/Adr cell line
Experimental: as §1, §2, §5

[29] = tested on: H226; experiment: ATP luminescence proliferation assay, H226; settings: 72 h incubation period, read-out: EC50 against the H226 cell line
Experimental: as §1, with “The EC50 values—the concentration at which an agent inhibits or reduces cell proliferation by 50% —were determined using PRISM™ software, version 4.0 (GraphPad Software, La Jolla, Calif., USA).” left out
as §2, with “(Not all compounds were assayed against all cell lines.)” left out

[30] = tested on: OVCAR3; experiment: ATP luminescence proliferation assay, OVCAR3; settings: ATP luminescence, OVCAR3, 48 h incubation; read-out: EC50 OVCAR3 (48 h)
Experimental: as §1, §2, §5

[31] = tested on: HCT-15; experiment: ATP luminescence proliferation assay, HCT-15; settings: ATP luminescence, HCT-15, 72 h incubation; read-out: EC50 HCT-15 (72 h)
Experimental: as §1, §2, §5

[32] = ATP luminescence, HL-60, 48 h incubation, read-out: EC50 HL-60 (48 h)

SMILES: CC[C@H](C)[C@H](NC(=O)[C@H]1CCCCN1C)C(=O)N(COC)[C@H](C[C@@H](OC(C)=O)c1nc(C(=O)N[C@@H](Cc2ccccc2)C(=O)OC)cs1)C(C)C [(III-q)]
- pEC50 [1]: 8.12
- pEC50 ([2]; Homo sapiens, 786-0, 72 h, read-out: EC50 786-O (72 h), ATP luminescence, 786-O, 72 h incubation): 6.98
- pEC50 [3]: 7.82
- pEC50 ([4]; Homo sapiens, HL-60, 72 h, read-out: EC50 HL-60 (72 h), ATP luminescence, HL-60, 72 h incubation): 7.85

SMILES: CC[C@H](C)[C@H](NC(=O)[C@H]1CCCCN1C)C(=O)N(C)[C@H](C[C@@H](OC)c1nc(C(=O)N[C@@H](C)C(=O)N[C@@H](Cc2ccccc2)C(=O)OC)cs1)C(C)C [Compound 26a]
- pEC50 [5]: 7.15
- pEC50 [6]: < 7.00
- pEC50 [7]: < 7.00
- pEC50 [1]: < 7.00
- pEC50 [8]: 7.25
- pEC50 [9]: < 7.00
- pEC50 [10]: < 7.00
- pEC50 [3]: 8.00
- pEC50 [11]: 8.70
- pEC50 [12]: < 7.00
- pEC50 [13]: 7.68
- pEC50 [14]: 6.80
- pEC50 [15]: < 7.00
- pEC50 [16]: 8.00
- pEC50 [17]: 7.66
- pEC50 [18]: 8.15
- pEC50 [19]: < 7.00
- pEC50 [20]: 7.00
- pEC50 [21]: < 7.00
- pEC50 [22]: 7.44
- pEC50 [23]: 8.49
- pEC50 [24]: 7.10
- pEC50 [25]: 7.33
- pEC50 [26]: 7.70
- pEC50 [27]: < 7.00

SMILES: CC[C@H](C)[C@H](NC(=O)[C@H]1CCCCN1C)C(=O)N(C)[C@H](C[C@@H](OC(C)=O)c1nc(C(=O)N[C@@H](Cc2ccc(N)cc2)CC(C)C(=O)OC)cs1)C(C)C (some centres unmarked) [Compound 36a]
- pEC50 ([2]; ATP luminescence, 786-O, 72 h incubation, read-out: EC50 786-O (72 h)): 9.36
- pEC50 [4, 32]: 10.32
- pEC50 [28]: 7.77
- pEC50 [29]: 9.51

SMILES: CC[C@H](C)[C@H](NC(=O)[C@H]1CCCCN1C)C(=O)N(C)[C@H](C[C@@H](OC(C)=O)c1nc(C(=O)N[C@@H](Cc2ccc(N)cc2)C[C@H](C)C(=O)O)cs1)C(C)C [Compound 84a]
- pEC50 [30]: 8.09
- pEC50 ([2]; ATP luminescence, 786-O, 48 h incubation, read-out: EC50 786-O (48 h)): 8.21
- pEC50 [31]: 6.86
- pEC50 [4, 32]: 7.55 to 8.00
- pEC50 [28]: < 6.52
